Measurements: US6737383B1, “Herbicidal oxadiazolidines” (priority 1999, dated 2004)

Tests used:
bamyardgrass = experiment: Test B flood test barnyardgrass; type: in vivo, Echinochloa crus-galli; conditions: for Plant response rating, Barnyardgrass: scale 0 to 10, 0 is no effect, 10 is complete control; for Barnyardgrass plant response rating: scale of 0 to 10 where 0 is no effect and 10 is complete control
Method in brief: (§1)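 Read-out is a visual response score from 0 (no effect) to 10 (complete control), assigned by comparison with untreated controls. Treatment was applied at the 2-leaf stage, and plants stayed in the greenhouse for twelve to sixteen days before scoring.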

wild oat = experiment: Test B pre/postemergence wild oat; type: in vivo, Avena fatua
Method in brief: (§2)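 Test chemicals in a non-phytotoxic solvent mixture with surfactant were sprayed preemergence onto planted seeds and postemergence onto plants 2 to 18 cm tall (1- to 4-leaf stage). After twelve to sixteen days in a greenhouse, injury was visually rated against untreated controls from 0 (no effect) to 10 (complete control).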

cocklebur = experiment: Test B pre/postemergence cocklebur; type: in vivo, Xanthium strumarium
Method in brief: as §2

wheat = experiment: Test B pre/postemergence wheat; type: in vivo, Triticum aestivum
Method in brief: as §2

sugar beet = experiment: Test B pre/postemergence sugar beet; type: in vivo, Beta vulgaris
Method in brief: as §2

rice = experiment: Test B flood test rice; type: in vivo, Oryza sativa
Method in brief: as §1

blackgrass = experiment: Test B pre/postemergence blackgrass; type: in vivo, Alopecurus myosuroides
Method in brief: as §2

purple nutsedge = experiment: Test B pre/postemergence purple nutsedge; type: in vivo, Cyperus rotundus
Method in brief: as §2

velvetleaf = experiment: Test B pre/postemergence velvetleaf; type: in vivo, Abutilon theophrasti
Method in brief: as §2

giant foxtail = experiment: Test B pre/postemergence giant foxtail; type: in vivo, Setaria faberii
Method in brief: as §2

duck salad = experiment: Test B flood test duck salad; type: in vivo, Heteranthera limosa; conditions: for Plant response rating, Ducksalad: scale 0 to 10, 0 is no effect, 10 is complete control; for Ducksalad plant response rating: scale of 0 to 10 where 0 is no effect and 10 is complete control
Method in brief: as §1

pigweed = experiment: Test B pre/postemergence pigweed; type: in vivo, Amaranthus retroflexus
Method in brief: as §2

bedstraw = experiment: Test B pre/postemergence bedstraw; type: in vivo, Galium aparine; conditions: Postemergence
Method in brief: as §2

rape = experiment: Test B pre/postemergence rape; type: in vivo, Brassica napus
Method in brief: as §2

surinam grass = experiment: Test B pre/postemergence surinam grass; type: in vivo, Brachiaria decumbens
Method in brief: as §2

soybean = experiment: Test B pre/postemergence soybean; type: in vivo, Glycine max
Method in brief: as §2

crabgrass = experiment: Test B pre/postemergence crabgrass; type: in vivo, Digitaria sanguinalis
Method in brief: as §2

corn = experiment: Test B pre/postemergence corn; type: in vivo, Zea mays
Method in brief: as §2

smallflower flatsedge = experiment: Test B flood test smallflower flatsedge; type: in vivo, Cyperus difformis
Method in brief: as §1

morningglory = experiment: Test B pre/postemergence morningglory; type: in vivo, Ipomoea hederacea
Method in brief: as §2

[1] = Postemergence (flood test), Rate 125 g/ha
[2] = Postemergence section (flood test species), Rate 500 g/ha
[3] = Rate 62 g/ha, Postemergence (flood test species)
[4] = flood test species, listed under Postemergence, Rate 250 g/ha
[5] = Postemergence, Rate 500 g/ha, scale of 0 to 10 where 0 is no effect and 10 is complete control
[6] = Preemergence, Rate 62 g/ha, scale 0 to 10 (0 no effect, 10 complete control)
[7] = Preemergence, Rate 125 g/ha, scale of 0 to 10 where 0 is no effect and 10 is complete control
[8] = Preemergence, Rate 250 g/ha, scale 0 to 10, 0 is no effect, 10 is complete control
[9] = Preemergence, Rate 500 g/ha, scale 0 to 10, 0 is no effect, 10 is complete control
[10] = Postemergence, Rate 125 g/ha, scale 0 to 10, 0 is no effect, 10 is complete control
[11] = Postemergence, Rate 250 g/ha, scale 0 to 10, 0 is no effect, 10 is complete control
[12] = Rate 62 g/ha, Postemergence, scale of 0 to 10 where 0 is no effect and 10 is complete control
[13] = Postemergence section (flood test species), Rate 500 g/ha, scale of 0 to 10 where 0 is no effect and 10 is complete control
[14] = flood test species, listed under Postemergence, Rate 250 g/ha, scale 0 to 10, 0 is no effect, 10 is complete control
[15] = Preemergence, Rate 250 g/ha, scale of 0 to 10 where 0 is no effect and 10 is complete control

CC(C)N(C(=O)n1oc(=O)n(C2CCOCC2)c1=O)c1ccccc1 [Compound 416]
Plant response rating, Barnyardgrass (bamyardgrass; [1]): 0
Barnyardgrass plant response rating (bamyardgrass; [2]): 0
Barnyardgrass plant response rating (bamyardgrass; [3]): 0
Plant response rating, Barnyardgrass (bamyardgrass; [4]): 0
Wild oats plant response rating (wild oat; [5]): 7
Plant response rating, Wild oats (wild oat; [6]): 6
Plant response rating, Wild oats (wild oat; [7]): 7
Wild oats plant response rating (wild oat; [8]): 8
Wild oats plant response rating (wild oat; [9]): 10
Plant response rating, Cocklebur (cocklebur; [10]): 0
Plant response rating, Cocklebur (cocklebur; [11]): 0
Cocklebur plant response rating (cocklebur; [5]): 5
Plant response rating, Cocklebur (cocklebur; [6]): 0
Plant response rating, Cocklebur (cocklebur; [7]): 0
Cocklebur plant response rating (cocklebur; [8]): 0
Cocklebur plant response rating (cocklebur; [9]): 4
Cocklebur plant response rating (cocklebur; [12]): 0
Wheat plant response rating (wheat; [5]): 7
Plant response rating, Wheat (wheat; [6]): 2
Plant response rating, Wheat (wheat; [7]): 4
Wheat plant response rating (wheat; [8]): 7
Wheat plant response rating (wheat; [9]): 10
Plant response rating, Sugarbeets (sugar beet; [11]): 0
Sugarbeets plant response rating (sugar beet; [5]): 2
Plant response rating, Sugarbeets (sugar beet; [6]): 3
Plant response rating, Sugarbeets (sugar beet; [7]): 4
Sugarbeets plant response rating (sugar beet; [8]): 7
Sugarbeets plant response rating (sugar beet; [9]): 9
Rice plant response rating (rice; [13]): 0
Plant response rating, Rice (rice; [14]): 0
Plant response rating, Blackgrass (blackgrass; [10]): 9
Plant response rating, Blackgrass (blackgrass; [11]): 9
Blackgrass plant response rating (blackgrass; [5]): 9
Plant response rating, Blackgrass (blackgrass; [6]): 8
Plant response rating, Blackgrass (blackgrass; [7]): 9
Blackgrass plant response rating (blackgrass; [15]): 10
Blackgrass plant response rating (blackgrass; [9]): 10
Blackgrass plant response rating (blackgrass; [12]): 6
Plant response rating, Nutsedge (purple nutsedge; [11]): 0
Nutsedge plant response rating (purple nutsedge; [5]): 0
Plant response rating, Nutsedge (purple nutsedge; [6]): 0
Plant response rating, Nutsedge (purple nutsedge; [7]): 0
Nutsedge plant response rating (purple nutsedge; [8]): 3
Nutsedge plant response rating (purple nutsedge; [9]): 4
Plant response rating, Velvetleaf (velvetleaf; [11]): 0
Velvetleaf plant response rating (velvetleaf; [5]): 6
Plant response rating, Velvetleaf (velvetleaf; [6]): 0
Plant response rating, Velvetleaf (velvetleaf; [7]): 3
Velvetleaf plant response rating (velvetleaf; [8]): 6
Velvetleaf plant response rating (velvetleaf; [9]): 8
Plant response rating, Giant foxtail (giant foxtail; [10]): 8
Plant response rating, Giant foxtail (giant foxtail; [11]): 9
Giant foxtail plant response rating (giant foxtail; [5]): 9
Plant response rating, Giant foxtail (giant foxtail; [6]): 8
Plant response rating, Giant foxtail (giant foxtail; [7]): 10
Giant foxtail plant response rating (giant foxtail; [8]): 10
Giant foxtail plant response rating (giant foxtail; [9]): 10
Giant foxtail plant response rating (giant foxtail; [12]): 7
Plant response rating, Ducksalad (duck salad; [1]): 0
Ducksalad plant response rating (duck salad; [2]): 0
Ducksalad plant response rating (duck salad; [3]): 0
Plant response rating, Ducksalad (duck salad; [4]): 0
Plant response rating, Redroot pigweed (pigweed; [11]): 2
Redroot pigweed plant response rating (pigweed; [5]): 7
Plant response rating, Redroot pigweed (pigweed; [6]): 7
Plant response rating, Redroot pigweed (pigweed; [7]): 9
Redroot pigweed plant response rating (pigweed; [8]): 10
Redroot pigweed plant response rating (pigweed; [9]): 10
Plant response rating, Bedstraw (bedstraw; Rate 125 g/ha, scale 0 to 10, 0 is no effect, 10 is complete control): 3
Bedstraw plant response rating (bedstraw; Rate 500 g/ha, scale of 0 to 10 where 0 is no effect and 10 is complete control): 7
Plant response rating, Rape (rape; [11]): 3
Rape plant response rating (rape; [5]): 3
Plant response rating, Rape (rape; [6]): 7
Plant response rating, Rape (rape; [7]): 9
Rape plant response rating (rape; [8]): 9
Rape plant response rating (rape; [9]): 10
Plant response rating, B. signalgrass (surinam grass; [10]): 6
Plant response rating, B. signalgrass (surinam grass; [11]): 8
B. signalgrass plant response rating (surinam grass; [5]): 9
Plant response rating, B. signalgrass (surinam grass; [6]): 7
Plant response rating, B. signalgrass (surinam grass; [7]): 7
B. signalgrass plant response rating (surinam grass; [15]): 7
B. signalgrass plant response rating (surinam grass; Preemergence, Rate 500 g/ha, scale of 0 to 10 where 0 is no effect and 10 is complete control): 9
B. signalgrass plant response rating (surinam grass; [12]): 2
Plant response rating, Soybean (soybean; [11]): 6
Soybean plant response rating (soybean; [5]): 7
Plant response rating, Soybean (soybean; [6]): 0
Plant response rating, Soybean (soybean; [7]): 4
Soybean plant response rating (soybean; [8]): 7
Soybean plant response rating (soybean; [9]): 9
Plant response rating, Crabgrass (crabgrass; [10]): 6
Plant response rating, Crabgrass (crabgrass; [11]): 9
Crabgrass plant response rating (crabgrass; [5]): 9
Plant response rating, Crabgrass (crabgrass; [6]): 7
Plant response rating, Crabgrass (crabgrass; [7]): 10
Crabgrass plant response rating (crabgrass; [8]): 10
Crabgrass plant response rating (crabgrass; [9]): 10
Crabgrass plant response rating (crabgrass; [12]): 2
Plant response rating, Corn (corn; [10]): 0
Plant response rating, Corn (corn; [11]): 5
Corn plant response rating (corn; [5]): 7
Plant response rating, Corn (corn; [6]): 0
Plant response rating, Corn (corn; [7]): 0
Corn plant response rating (corn; [8]): 3
Corn plant response rating (corn; [9]): 6
Corn plant response rating (corn; [12]): 0
S. Flatsedge plant response rating (smallflower flatsedge; [13]): 0
Plant response rating, S. Flatsedge (smallflower flatsedge; [14]): 0
Plant response rating, Morningglory (morningglory; [11]): 9
Morningglory plant response rating (morningglory; [5]): 9
Plant response rating, Morningglory (morningglory; [6]): 0
Plant response rating, Morningglory (morningglory; [7]): 4
Morningglory plant response rating (morningglory; [8]): 6
Morningglory plant response rating (morningglory; [9]): 8
